US12371454B2, “Cyclic peptide compound having Kras inhibitory action” (priority 2019, dated 2025)
Starred links: 1 amine or outer side, 2 acyl side, 3 side chain; linkers in the order of their positions; H or OH if unused. Positions of bridges follow the written chain, without caps; N, C: chain ends. Non-standard residues stand in square brackets, D forms with d. Residues, ends and D or L forms follow the SMILES beside them. *: point of attachment. hPhe(3-Cl-4-CF3) = N[C@@H](CCc1ccc(C(F)(F)F)c(Cl)c1)C(=O)O; hPhe(3-F,4-CF3) = N[C@@H](CCc1ccc(C(F)(F)F)c(F)c1)C(=O)O; NMePhe(4-Me) = CN[C@@H](Cc1ccc(C)cc1)C(=O)O; NMedβ3hAla = C[C@H](CC(=O)[*:2])N(C)[*:1]; Morpholine(3S-CO) = O=C(O)[C@@H]1COCCN1; NMeAla(cPr) = CN[C@@H](CC1CC1)C(=O)O; NMe3Pal = CN[C@@H](Cc1cccnc1)C(=O)O; NMeCha = CN[C@@H](CC1CCCCC1)C(=O)O; X2 = C=CC[C@](C)(N[*:1])C(=O)[*:2]; NMeChg = CN[C@H](C(=O)O)C1CCCCC1; NMeF = CN[C@@H](Cc1ccccc1)C(=O)O; NMeI = CC[C@H](C)[C@H](NC)C(=O)O; NMeD = CN[C@@H](CC(=O)O)C(=O)O; NMeL = CN[C@@H](CC(C)C)C(=O)O; NMeV = CN[C@H](C(=O)O)C(C)C; d(β3hA) = C[C@@H](N)CC(=O)O; Azetidin(1-yl) = C1CN(*)C1; NMeA = CN[C@@H](C)C(=O)O; Piperidide = C1CCN(*)CC1; Ac5c = NC1(C(=O)O)CCCC1; Aze = O=C(O)[C@@H]1CCN1; Sar = CNCC(=O)O

Experiments:
[1] = target: T1, Kras and SOS1 (biotin-tagged human Kras loaded with GDP, His-tagged human SOS1) (Homo sapiens, UniProt P01116, G12D); assay: Protein-protein interaction inhibition between Kras and SOS1 (KrasGl2D-SOS PPI) using AlphaScreen; type: binding; conditions: AlphaScreen; biotin-tagged human Kras loaded with GDP, His-tagged human SOS1; read-out: KRAS G12D-SOS PPI IC50
T1 construct: made in house; host or cells: E. coli (stated for Kras only)
Outline: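 Donor beads (nickel) hold His-SOS1; acceptor beads (streptavidin) hold biotin-Kras bound to GDP. Signal measured at 520-620 nm following 680 nm excitation.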

[2] = tested on: Human pancreatic cancer cell line AsPC-1; assay: Measurement of AsPC-1 cell growth inhibition (AsPC-1 CGI); type: cell-based; conditions: 96 h
Outline: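 AsPC-1 cells in 15% FBS RPMI-1640 were exposed to test compound for 96 hours at 37° C, with CellTiter-Glo as endpoint.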

T1 sequence (P01116 1-188 isoform P01116-2 G12D): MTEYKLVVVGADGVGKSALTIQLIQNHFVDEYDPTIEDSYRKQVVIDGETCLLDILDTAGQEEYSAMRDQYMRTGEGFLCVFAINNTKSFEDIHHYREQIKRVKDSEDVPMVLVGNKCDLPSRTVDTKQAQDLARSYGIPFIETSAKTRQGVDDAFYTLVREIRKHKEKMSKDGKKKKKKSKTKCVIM

Row | Structure (SMILES) | IC50 [1] | IC50 [2]
1 | C=CC[C@]1(C)NC(=O)[C@@H]2CCCN2C(=O)[C@H](CCc2ccc(C(F)(F)F)c(Cl)c2)NC(=O)CN(C)C(=O)[C@H](CC2CCCCC2)N(C)C(=O)CN(C)C(=O)CN(C)C(=O)[C@H]([C@@H](C)CC)NC(=O)[C@H](CC(C)C)N(C)C(=O)C[C@@H](C(=O)N2CCCCC2)N(C)C(=O)[C@H](C(C)C)N(C)C1=O [Compound 1109] ([NMeL]I[Sar][Sar][NMeCha][Sar][hPhe(3-Cl-4-CF3)]P[X2][NMeV][NMeD]-Piperidide; lactam N-11) | 23 nM | 100 to 500 nM
2 | CC[C@H](C)[C@@H]1NC(=O)[C@H](CC(C)C)N(C)C(=O)C[C@@H](C)N(C)C(=O)[C@H](C(C)C)N(C)C(=O)C2(CCCC2)NC(=O)[C@@H]2CCCN2C(=O)[C@H](CCc2ccc(C(F)(F)F)c(Cl)c2)NC(=O)CN(C)C(=O)[C@H](Cc2ccccc2)N(C)C(=O)CN(C)C(=O)CN(C)C1=O [Compound 1604] (cyclo([Ac5c][NMeV][NMedβ3hAla][NMeL]I[Sar][Sar][NMeF][Sar][hPhe(3-Cl-4-CF3)]P)) | 5.8 nM | 50 to 100 nM
3 | CC[C@H](C)[C@@H]1NC(=O)[C@H](CC2CC2)N(C)C(=O)C[C@@H](C(=O)N2CCCCC2)N(C)C(=O)[C@H](C(C)C)N(C)C(=O)C2(CCCC2)NC(=O)[C@@H]2CCCN2C(=O)[C@H](CCc2ccc(C(F)(F)F)c(Cl)c2)NC(=O)CN(C)C(=O)[C@H](CC2CCCCC2)N(C)C(=O)CN(C)C(=O)CN(C)C1=O [Compound 561] ([NMeAla(cPr)]I[Sar][Sar][NMeCha][Sar][hPhe(3-Cl-4-CF3)]P[Ac5c][NMeV][NMeD]-Piperidide; lactam N-11) | 3.4 nM | 100 to 500 nM
4 | CC[C@H](C)[C@@H]1NC(=O)[C@H](CC(C)C)N(C)C(=O)C[C@@H](C(=O)N(C)C)N(C)C(=O)[C@H]([C@@H](C)CC)N(C)C(=O)C2(CCCC2)NC(=O)[C@H](Cc2cccnc2)N(C)C(=O)[C@H](CCc2ccc(C(F)(F)F)c(Cl)c2)NC(=O)CN(C)C(=O)[C@H](Cc2ccc(C)cc2)N(C)C(=O)[C@@H]2CCN2C(=O)[C@H](C)N(C)C1=O [Compound 243] ([NMeL]I[NMeA][Aze][NMePhe(4-Me)][Sar][hPhe(3-Cl-4-CF3)][NMe3Pal][Ac5c][NMeI][NMeD]-NMe2; lactam N-11) | 0.43 nM | 20 to 50 nM
5 | CC[C@H](C)[C@@H]1NC(=O)[C@H](CC(C)C)N(C)C(=O)C[C@@H](C(=O)N2CCC2)N(C)C(=O)[C@H](C2CCCCC2)N(C)C(=O)C2(CCCC2)NC(=O)[C@@H]2CCCN2C(=O)[C@H](CCc2ccc(C(F)(F)F)c(Cl)c2)NC(=O)CN(C)C(=O)[C@H](CC2CCCCC2)N(C)C(=O)CN(C)C(=O)CN(C)C1=O [Compound 437] ([NMeL]I[Sar][Sar][NMeCha][Sar][hPhe(3-Cl-4-CF3)]P[Ac5c][NMeChg][NMeD]-{Azetidin(1-yl)}; lactam N-11) | 0.47 nM | 50 to 100 nM
6 | CC[C@H](C)[C@@H]1NC(=O)[C@H](CC(C)C)N(C)C(=O)C[C@@H](C(=O)N2CCCCC2)N(C)C(=O)[C@H](C2CCCCC2)N(C)C(=O)C2(CCCC2)NC(=O)[C@@H]2COCCN2C(=O)[C@H](CCc2ccc(C(F)(F)F)c(Cl)c2)NC(=O)CN(C)C(=O)[C@H](CC2CCCCC2)N(C)C(=O)CN(C)C(=O)CN(C)C1=O [Compound 662] ([NMeL]I[Sar][Sar][NMeCha][Sar][hPhe(3-Cl-4-CF3)][Morpholine(3S-CO)][Ac5c][NMeChg][NMeD]-Piperidide; lactam N-11) | 3.2 nM | 50 to 100 nM
7 | CC[C@H](C)[C@@H]1NC(=O)[C@H](CC(C)C)N(C)C(=O)C[C@@H](C)NC(=O)[C@H](C(C)C)N(C)C(=O)C2(CCCC2)NC(=O)[C@@H]2CCCN2C(=O)[C@H](CCc2ccc(C(F)(F)F)c(F)c2)NC(=O)CN(C)C(=O)[C@H](CC2CCCCC2)N(C)C(=O)[C@@H]2CCN2C(=O)CN(C)C1=O [Compound 211] (cyclo([Ac5c][NMeV][d(β3hA)][NMeL]I[Sar][Aze][NMeCha][Sar][hPhe(3-F,4-CF3)]P)) | 43 nM | 100 to 500 nM
8 | CC[C@H](C)[C@@H]1NC(=O)[C@H](CC(C)C)N(C)C(=O)C[C@@H](C(=O)N(C)C)N(C)C(=O)[C@H](C(C)C)N(C)C(=O)C2(CCCC2)NC(=O)[C@@H]2CCCN2C(=O)[C@H](CCc2ccc(C(F)(F)F)c(Cl)c2)NC(=O)CN(C)C(=O)[C@H](Cc2ccc(C)cc2)N(C)C(=O)CN(C)C(=O)CN(C)C1=O [Compound 1867] ([NMeL]I[Sar][Sar][NMePhe(4-Me)][Sar][hPhe(3-Cl-4-CF3)]P[Ac5c][NMeV][NMeD]-NMe2; lactam N-11) | 0.73 nM | 100 to 500 nM
9 | CC[C@H](C)[C@@H]1NC(=O)[C@H](CC(C)C)N(C)C(=O)C[C@@H](C)N(C)C(=O)[C@H](C(C)C)N(C)C(=O)C2(CCCC2)NC(=O)[C@@H]2CCCN2C(=O)[C@H](CCc2ccc(C(F)(F)F)c(Cl)c2)NC(=O)CN(C)C(=O)[C@H](Cc2ccc(C)cc2)N(C)C(=O)CN(C)C(=O)CN(C)C1=O [Compound 1549] (cyclo([Ac5c][NMeV][NMedβ3hAla][NMeL]I[Sar][Sar][NMePhe(4-Me)][Sar][hPhe(3-Cl-4-CF3)]P)) | 3.6 nM | 50 to 100 nM
